From EP0774258A1, “Composition containing 5-fluorouracil and d4T for use in the treatment of retroviral infection” (priority 1995, dated 1997) come the findings set out here.

The test system of series [1] is clinical HIV-1 isolate, JEW. The series is described as follows: Anti-HIV activity (p24 ELISA) in acutely infected PHA-stimulated PBMC, clinical isolate JEW. In kind it is cell-based. The source says: The materials and experimental procedure used to obtain the results reported in Tables 1 and 2 are described below.
Virus - A clinical HIV-1 isolate, JEW, was titrated with a infectivity assay [Johnson, V. A. and R. E. Byington. 1990. Infectivity assay, p. 71-76. in A. Aldovini and B. D. Walker (ed.), Techniques in HIV Research. Stockton Press, New York], and used in our experiments.
Chemicals - d4T was supplied by Bristol-Myers Squibb Company. 5-Fluorouracil (5-FU) was purchased from Sigma.
• 1. […] 50 µl of 4 X 10^6/ml infected PBMC were added to each well in these plates to get a final 1 X 10^6 cells/ml, and incubated at 37°C. • 4. […] This was repeated with d4T using 5-FU concentrations of 0.1 µM and 0.5 µM, respectively.

A further series concerns PBMC. As to conditions: human.

On to `OC[C@@H]1CC[C@H](n2cnc3c(O)ncnc32)O1` [ddI, 2',3'-dideoxyinosine], for which the EC50 in series [1] (Human immunodeficiency virus 1, PBMC, 168 h, 5-FU concentration 0.5 µM, PHA-stimulated PBMC, isolate JEW, p24 at day 7, mean of three experiments, read-out: EC50 (nM) of ddI) was found to be 138 ± 26 nM. Besides, the “Fold Enhancement” value was determined as 0.6 X in series [1] (effect of 0.2 µM 5-FU on ddI anti-HIV activity, isolate JEW) and 0.7 X in series [1] (effect of 0.5 µM 5-FU on ddI anti-HIV activity, isolate JEW).

For the compound `Cc1cn([C@H]2C=C[C@@H](CO)O2)c(=O)[nH]c1=O` [d4T, 2',3'-didehydro-3'-deoxythymidine], the “Fold Enhancement” value in series [1] (enhancement of d4T anti-HIV activity by 0.2 µM 5-FU, isolate JEW) is listed as 1 X.

For `O=c1[nH]cc(F)c(=O)[nH]1` [5-FU, 5-fluorouracil], the 50% cytotoxicity concentration entry with PBMC is on record as “approximately 9 µM”. The antiviral activity entry in series [1] (Fluorouracil alone, up to 0.5 µM, PHA-PBMC acutely infected by isolate JEW) is reported as “no antiviral activity”.
